Data as given in patent US10563197B2, “Use of a combination of Dbait molecule and PARP inhibitors to treat cancer” (INSTITUT CURIE, priority 2015, dated 2020).

How the values were obtained:
Format in all cases: cell-based, human
MDAMB231 = test: Cell survival, trypan blue counting
Experimental: (§1) Cells were grown according to the supplier's instructions.

HCC1187 = test: Cell survival, trypan blue counting
Experimental: as §1

MDAMB468 = test: Cell survival, trypan blue counting
Experimental: as §1

BC173 = test: Cell survival, trypan blue counting
Experimental: as §1

MDAMB231 tumor cells = test: Alkaline comet assay; details: 24 h; AsiDNA (16 μM) or olaparib (1 μM) alone
Experimental: To dissect this cytotoxic synergy, the inventors examined the effect of AsiDNA, Ola or both on DNA repair activities. […] Pan-nuclear phosphorylation of H2AX is thought to be involved in the inhibition of HR and NHEJ repair enzyme recruitment by AsiDNA. […] This increase could account for the efficient toxicity of the combination in MDAMB231 cells.
Cells treated with AsiDNA (16 μM), olaparib (1 μM) or both were suspended in 0.5% low melting point agarose in DMEM and transferred onto a frosted glass microscope slide precoated with a layer of 0.5% normal melting point agarose. Slides were immersed in lysis solution [2.5 mol/L NaCl, 100 mmol/L EDTA, 10 mmol/L Tris, 1% sodium lauryl sarcosinate, 10% DMSO, 1% Triton X-100 (pH 10)] at 4jC for 1 h, placed in a electrophoresis tank containing 0.3 mol/L NaOH (pH 13) and 1 mmol/L EDTA for 40 min, electrophoresis for 25 min at 25 V (300 mA), washed with neutral buffer [400 mmol/L Tris-HCl (pH 7.5)], and stained with 20 Ag/mL ethidium bromide. The variables of the “comets” were quantified with the use of the software Comet Assay 2 (Perceptive Instrument). Triplicate slides were processed for each experimental point. The tail moment is defined as the product of the percentage of DNA in the tail and the displacement between the head and the tail of the comet.

SK28 Lsh DNA-PKcs = test: Cell survival, trypan blue counting; details: 4.80 μM of AsiDNA and/or 0.1 μM of Ola; day 6 after treatment
Experimental: (§2) Cells were grown according to the supplier's instructions. Cell lines were maintained at 37° C. in a humidified atmosphere at 5% CO2.
(§3) AsiDNA or PARPi cytotoxicity was measured by relative survival and cell death quantification. Adherent cells were seeded in 24-well culture plates at appropriate densities and incubated 24 hours at 37° C. before AsiDNA and/or PARPi addition. Cells were harvested day 6aftertreatment, stained with 0.4% trypan blue (Sigma Aldrich, Saint-Louis, USA) and counted with a Burker chamber. Cell survival was calculated as ratio of living treated cells to living mock-treated cells. Cell death was calculated as the number of dead cells on the total number of counted cells. Additivity of the toxicity was calculated by the product of cell survivals to AsiDNA and cell survivals to PARPi.

Hep2 = test: Cell survival, trypan blue counting; details: 4.80 μM of AsiDNA and/or 0.1 μM of Ola; day 6 after treatment
Experimental: as §2, §3

SK28 Lsh CTL = test: Cell survival, trypan blue counting; details: 4.80 μM of AsiDNA and/or 0.1 μM of Ola; day 6 after treatment
[1] = 0.1 μM Ola, 4.8 μM AsiDNA, sensitive = difference in % dead cells higher than two-fold
[2] = 4.80 μM of AsiDNA and/or 0.1 μM of Ola, day 6 after treatment

O=C(c1cc(Cc2n[nH]c(=O)c3ccccc23)ccc1F)N1CCN(C(=O)C2CC2)CC1 [Olaparib, 4-[(3-[(4-cyclopropylcarbonyl)piperazin-4-yl]carbonyl)-4-fluorophenyl]methyl(2H)-phthalazin-1-one]
sensitivity to treatment (MDAMB231; [1]): resistant to both treatments
Survival (%/NT) (MDAMB231; [2]): 90.9 %/NT
IC20 (MDAMB231; Homo sapiens, MDA-MB-231, MDAMB231, PARPi dose giving 80% survival): 1000 nM
IC50 (MDAMB231; Homo sapiens, MDA-MB-231, MDAMB231, PARPi dose resulting in 50% survival): 3700 nM
sensitivity to treatment (HCC1187; [1]): sensitive only to Ola
Survival (%/NT) (HCC1187; [2]): 61.5 %/NT
sensitivity to treatment (MDAMB468; [1]): sensitive to both treatments
Survival (%/NT) (MDAMB468; [2]): 68.3 %/NT
sensitivity to treatment (BC173; [1]): sensitive only to AsiDNA
Survival (%/NT) (BC173; [2]): 94.4 %/NT
DNA damage (alkaline comet assay) (MDAMB231 tumor cells): induced accumulation of damage
Survival (%/NT) (SK28 Lsh DNA-PKcs): 80.9 %/NT
Survival (%/NT) (Hep2): 101 %/NT
Survival (%/NT) (SK28 Lsh CTL): 80.6 %/NT
